Measured values published in PubChem BioAssay (NCI).
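48-hour exposure; five concentrations; linearly interpolated endpoints. TGI is the concentration that stops growth completely.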

Columns and labels:
Assay in all cases: inhibition of tumour cell growth, NCI panel, 48 h
DU-145 prostate = tested on: DU-145 prostate
HT29 colon = tested on: HT29 colon
K-562 leukemia = tested on: K-562 leukemia
KM12 colon = tested on: KM12 colon
NCI-H226 lung = tested on: NCI-H226 lung
NCI-H522 lung = tested on: NCI-H522 lung
SF-268 CNS = tested on: SF-268 CNS
SNB-75 CNS = tested on: SNB-75 CNS
MDA-N = tested on: MDA-N

Row | SMILES | TGI (DU-145 prostate) [µM] | TGI (HT29 colon) [µM] | TGI (K-562 leukemia) [µM] | TGI (KM12 colon) [µM] | TGI (NCI-H226 lung) [µM] | TGI (NCI-H522 lung) [µM] | TGI (SF-268 CNS) [µM] | TGI (SNB-75 CNS) [µM] | TGI (MDA-N) [µM]
1 | C=C1c2nc3ccccc3n2C=C(c2ccc(C)cc2)N1c1ccc(OC)cc1 | > 100 | > 91.2 | > 100 | 63.3 | > 100 | > 77.7 | > 100 | > 100 | 
2 | C=C(Br)CN=CN(C)C | > 100 | > 100 | > 100 |  | > 100 | > 100 | > 100 | > 100 | > 100
3 | CC1OC(OC2C(O[C@H]3CC[C@@]4(C)C(=CC[C@H]5[C@@H]6C[C@@H]7O[C@]8(CC[C@@H](C)CO8)[C@@H](C)[C@@H]7[C@@]6(C)CC[C@@H]54)C3)OC(CO)C(O)C2OC2OC(CO)C(O)C(O)C2O)C(O)C(O)C1O (stereo partly drawn) | 4.09 | > 100 | > 100 | 4.49 |  | 3.42 | 3.7 | 3.7 | 3.17
4 | C/C(=N\Nc1nc2ccccc2s1)c1ccncn1 | > 66.1 | 14 |  | 16.6 | 1.07 | 2.05 | 9.56 | 24.4 | > 100
5 | CCN(CC)C(=S)SC(C(=O)Nc1nnc(-c2ccc(Cl)cc2)o1)c1ccccc1 (stereo not drawn) | 94 | 16.9 | 42.4 | 58.2 |  | 26.6 | 67 |  | 50.3
6 | COC(=O)c1sc(=O)sc1SCc1cccc(CSc2sc(=O)sc2C(=O)OC)c1 | > 100 | > 100 | > 100 | > 100 | > 100 | > 100 | 86.1 |  | > 100
7 | N[C@@H](CCC(=O)NC(Cc1ccccc1)C(=O)NCP(=O)(O)O)C(=O)O (stereo partly drawn) |  | > 100 | > 100 | > 100 |  | > 100 |  |  | > 100
8 | Clc1ccc2c(c1)N(CCCN1CCCC13CCCCC3)c1ccccc1S2 | 34.2 | 15.7 | 21.6 | 27.7 | > 86.5 | 25.1 | > 58.7 |  | 26.2
9 | COP(=O)(OC)OCN(C)CC/C=C(\C)CC/C=C(\C)CCC=C(C)C |  |  | 20.6 | 30 | 34.6 | 26.1 | 30.8 | 28 | 29.3
10 | COc1cc2c[n+]3c4c(c2c(OC)c1OC)CCCC4CC3 (stereo not drawn) | > 100 | > 100 | > 100 | > 100 |  | > 100 |  |  | > 100
